This passage reports IC50 results from PMC12023740, “Semi-synthesis and biological activities of heterocyclic compounds containing camphor” (RSC Advances, 2025).

Series [1] concerns MCF-7 breast carcinoma cells. The experiment in a line: MTT cytotoxicity assay, MCF-7. The format is cell-based, human. As to conditions: mean ± SD of three experiments. How it is done:
(§1) MCF-7 Adenocarcinoma of the breast in humans and A549 […] lines of cells (purchased from Labco's Sigma-Aldrich) were employed to evaluate the newly synthesized compounds' anti-cancer potential. […] The American type culture collection provided the cell lines and were cultured in 10% FBS added to DMEM (Invitrogen/Life Technologies) (Hyclone), a 10 μg ml^−1 of insulin (Sigma), and a 1% penicillin-streptomycin. The suppliers of all other chemicals and reagents were either Invitrogen or Sigma.
(§2) For the MTT assay, cells were plated at a density of 1.2 to 1.8 × 10 000 cells per well in a total volume of 200 μl, comprising 100 μl of a full growing medium and 100 μl of the substance that was evaluated in each well. The cells were then incubated for 24 hours.
(§3) Aspirate the cells gently using a pipette after adding 6.0 to 8.0 ml of full growth media. […] Transfer the proper aliquots to new culture vessels, discard the supernatant, and resuspend the cell pellet in fresh growth media. For a full day, incubate the cultures at 37 °C. […] To perform the MTT assay, examine the plates using an inverted microscope.
(§4) Additionally, incorporate a blank control containing complete medium without any cells. Remove the cultures from the incubator and transfer them to a laminar flow hood or sterile workspace. […] Add the reconstituted MTT in an amount equal to 10% of the total volume of the culture medium. Return the cultures to the incubator for 2 to 4 hours, depending on the cell type and maximum cell density; typically, 2 hours is adequate, though longer incubation may be required for low-density or less metabolically active cells. It is important to maintain consistent incubation times for accurate comparisons.
(§5) Gentle mixing with a gyratory shaker will facilitate the dissolution of the crystals. In denser cultures, pipetting up and down may be necessary to ensure complete dissolution of the MTT formazan crystals. Measure the absorbance spectrophotometrically at 570 nm and assess the background absorbance of the multi-well plates at 690 nm, which should be subtracted from the 570 nm measurement. The tests in multi-well plates can be read using an appropriate plate reader, or the contents can be transferred to cuvettes for measurement.

For a further series, the system named is A549 lung cancer cells. The experiment in a line: MTT cytotoxicity assay, A549. The format is cell-based, human. As to conditions: mean ± SD of three experiments. As for the experimental part:
as §1, §2, §3, §4, §5
For orientation: Tetrazolium dyes change colour on reduction, which living cells bring about.

A further series deals with T1, EGFR^WT (Homo sapiens, UniProt P00533).
T1 construct: purchased 40321
T1 sequence (P00533 668-1210 limits assumed): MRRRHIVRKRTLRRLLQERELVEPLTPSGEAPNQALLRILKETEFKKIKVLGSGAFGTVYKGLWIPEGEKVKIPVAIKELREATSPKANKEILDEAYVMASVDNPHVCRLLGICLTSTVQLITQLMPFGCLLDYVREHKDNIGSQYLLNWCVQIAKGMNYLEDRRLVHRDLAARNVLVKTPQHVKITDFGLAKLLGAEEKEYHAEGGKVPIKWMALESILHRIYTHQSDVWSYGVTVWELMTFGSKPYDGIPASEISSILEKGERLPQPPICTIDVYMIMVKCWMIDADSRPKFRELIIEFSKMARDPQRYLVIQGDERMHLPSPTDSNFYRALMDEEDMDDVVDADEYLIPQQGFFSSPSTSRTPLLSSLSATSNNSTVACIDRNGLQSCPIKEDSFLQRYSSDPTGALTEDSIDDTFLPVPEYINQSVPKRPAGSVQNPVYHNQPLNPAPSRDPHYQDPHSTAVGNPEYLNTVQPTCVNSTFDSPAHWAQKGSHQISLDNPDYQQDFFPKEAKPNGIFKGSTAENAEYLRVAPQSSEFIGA
The experiment in a line: EGFR Kinase Assay Kit (Catalog # 40321), Kinase-Glo Max luminescence. It counts as biochemical. To be noted: five concentrations, read-out: EGFR kinase inhibitory activity IC50. Background: Kinase-Glo measures the ATP left after a reaction by luminescence.

In general, IC50 refers to the point on the concentration scale where inhibition reaches its midpoint. As to `COc1cccc2c1C(=O)c1c(O)c3c(c(O)c1C2=O)C[C@@](O)(C(=O)CO)C[C@@H]3O[C@H]1C[C@H](N)[C@H](O)[C@H](C)O1` [Doxorubicin, reference compound], the half-inhibitory concentration (IC50) is 3.1 µM in series [1] (Homo sapiens, MCF7, MTT test); 3.12 ± 0.11 µM in series [1] (MTT test); 2.43 ± 0.08 µM in the series on A549 lung cancer cells (Homo sapiens, A549, MTT test).

Take `CC12CCC(C3(C1)NC(=O)NC(=O)C3C#N)C2(C)C` (stereo not shown) [Compound 11, 4,7,7-Trimethyl-2′,6′-dioxotetrahydro-1′H-spiro[bicyclo[2.2.1]heptane-2,4′-pyrimidine]-5′-carbonitrile]: the IC50 came to 35 ± 1.32 µM in series [1] (Homo sapiens, MCF7, MTT test) and 56.6 ± 2.01 µM with A549 lung cancer cells (Homo sapiens, A549, MTT test).

With `CC12CCC(C/C1=N/N=C/c1cn(-c3ccc(S(N)(=O)=O)cc3)nc1-c1ccc(Br)cc1)C2(C)C` (stereo not shown) [Compound 20], the IC50 in series [1] (Homo sapiens, MCF7, MTT test) turned out to be 0.78 ± 0.03 µM; with A549 lung cancer cells (Homo sapiens, A549, MTT test), 1.69 ± 0.06 µM; at EGFR^WT, 0.198 µM.

On to `CC12CCC(C/C1=N/N=c1\[nH]c(-c3ccc(Cl)cc3)cs1)C2(C)C` (stereo not shown) [Compound 16b], for which the IC50 stood at 8.29 ± 0.3 µM in series [1] (Homo sapiens, MCF7, MTT test) and 15.2 ± 0.53 µM with A549 lung cancer cells (Homo sapiens, A549, MTT test).

On to `CC(=O)C1C(=O)NC(=O)NC12CC1(C)CCC2C1(C)C` (stereo not shown) [Compound 12, 5′-Acetyl-4,7,7-trimethyl-1′H-spiro[bicyclo[2.2.1]heptane-2,4′-pyrimidine]-2′,6′(3′H,5′H)-dione], for which the half-inhibitory concentration (IC50) in series [1] (Homo sapiens, MCF7, MTT test) stood at 3.2 ± 0.12 µM; in the series on A549 lung cancer cells (Homo sapiens, A549, MTT test), 14.4 ± 0.5 µM.

As to `CC12CCC(C3(C1)NC(=O)NC(=N)C3C#N)C2(C)C` (stereo not shown) [Compound 10, 6′-Imino-4,7-trimethyl-2′-oxotetrahydro-1′H-spiro[bicyclo[2.2.1]heptane-2,4′-pyrimidine]-5′-carbonitrile], the IC50 in series [1] (Homo sapiens, MCF7, MTT test) came out at 12.7 ± 0.47 µM; in the series with A549 lung cancer cells (Homo sapiens, A549, MTT test), 23.3 ± 0.81 µM.

In series [1] (Homo sapiens, MCF7, MTT test), `C#Cc1cccc(Nc2ncnc3cc(OCCOC)c(OCCOC)cc23)c1` [Erlotinib, reference compound] had a 50% inhibitory concentration (IC50) of 13.9 ± 1.3 µM.

For the compound `CC12CCC(C3(C1)NC(=S)NC(=N)C3C#N)C2(C)C` (stereo not shown) [Compound 6, 6′-Imino-4,7,7-trimethyl-2′-thioxotetrahydro-1′H-spiro[bicyclo[2.2.1]heptane-2,4′-pyrimidine]-5′-carbonitrile], the 50% inhibitory concentration (IC50) amounted to 19.9 ± 0.73 µM in series [1] (Homo sapiens, MCF7, MTT test) and 28.5 ± 0.99 µM in the series with A549 lung cancer cells (Homo sapiens, A549, MTT test).

Consider `Cc1nc(Nc2ncc(C(=O)Nc3c(C)cccc3Cl)s2)cc(N2CCN(CCO)CC2)n1` [Dasatinib, reference compound], for which the half-inhibitory concentration (IC50) is 7.99 ± 0.29 µM in series [1] (Homo sapiens, MCF7, MTT test); 11.8 µM with A549 lung cancer cells (Homo sapiens, A549, MTT test); 11.8 ± 0.41 µM with A549 lung cancer cells (MTT test).

Regarding `CC(=O)C1C(=O)NC(=S)NC12CC1(C)CCC2C1(C)C` (stereo not shown) [Compound 8, 5′-Acetyl-4,7,7-trimethyl-2′-thioxodihydro-1′H-spiro[bicyclo[2.2.1]heptane-2,4′-pyrimidin]-6′(5′H)-one], the IC50 in series [1] (Homo sapiens, MCF7, MTT test) is 6.15 ± 0.23 µM; in the series with A549 lung cancer cells (Homo sapiens, A549, MTT test) it was 3.34 ± 0.12 µM.

`CC12CCC(C/C1=N/N=c1\[nH]c(-c3ccc(Br)cc3)cs1)C2(C)C` (stereo not shown) [Compound 16c]: the half-inhibitory concentration (IC50) in series [1] (Homo sapiens, MCF7, MTT test) was found to be 2.84 ± 0.1 µM; in the series with A549 lung cancer cells (Homo sapiens, A549, MTT test), 1.29 ± 0.04 µM.

Turning to `Cc1ccc(-c2cs/c(=N/N=C3/CC4CCC3(C)C4(C)C)[nH]2)cc1` (stereo not shown) [Compound 16a], the 50% inhibitory concentration (IC50) in series [1] (Homo sapiens, MCF7, MTT test) came out at 2.16 ± 0.08 µM; in the series on A549 lung cancer cells (Homo sapiens, A549, MTT test), 4.13 ± 0.14 µM.

In the case of `CC12CCC(C3(C1)NC(=S)NC(=O)C3C#N)C2(C)C` (stereo not shown) [Compound 7, 4,7,7-Trimethyl-6′-oxo-2′-thioxotetrahydro-1′H-spiro[bicyclo[2.2.1]heptane-2,4′-pyrimidine]-5′-carbonitrile], the IC50 in series [1] (Homo sapiens, MCF7, MTT test) came to 10.1 ± 0.39 µM; in the series with A549 lung cancer cells (Homo sapiens, A549, MTT test) it was 22.2 ± 0.77 µM.
